{"source": "patent US20240294467A1", "about": "“USP9X Inhibitors” (ProDeg, LLC, priority 2021, published 2024)", "key": {"USP9X [1]": {"biological_target": "T1, USP9X (Homo sapiens (Human), UniProt Q93008)", "T1 sequence (Q93008 whole entry)": "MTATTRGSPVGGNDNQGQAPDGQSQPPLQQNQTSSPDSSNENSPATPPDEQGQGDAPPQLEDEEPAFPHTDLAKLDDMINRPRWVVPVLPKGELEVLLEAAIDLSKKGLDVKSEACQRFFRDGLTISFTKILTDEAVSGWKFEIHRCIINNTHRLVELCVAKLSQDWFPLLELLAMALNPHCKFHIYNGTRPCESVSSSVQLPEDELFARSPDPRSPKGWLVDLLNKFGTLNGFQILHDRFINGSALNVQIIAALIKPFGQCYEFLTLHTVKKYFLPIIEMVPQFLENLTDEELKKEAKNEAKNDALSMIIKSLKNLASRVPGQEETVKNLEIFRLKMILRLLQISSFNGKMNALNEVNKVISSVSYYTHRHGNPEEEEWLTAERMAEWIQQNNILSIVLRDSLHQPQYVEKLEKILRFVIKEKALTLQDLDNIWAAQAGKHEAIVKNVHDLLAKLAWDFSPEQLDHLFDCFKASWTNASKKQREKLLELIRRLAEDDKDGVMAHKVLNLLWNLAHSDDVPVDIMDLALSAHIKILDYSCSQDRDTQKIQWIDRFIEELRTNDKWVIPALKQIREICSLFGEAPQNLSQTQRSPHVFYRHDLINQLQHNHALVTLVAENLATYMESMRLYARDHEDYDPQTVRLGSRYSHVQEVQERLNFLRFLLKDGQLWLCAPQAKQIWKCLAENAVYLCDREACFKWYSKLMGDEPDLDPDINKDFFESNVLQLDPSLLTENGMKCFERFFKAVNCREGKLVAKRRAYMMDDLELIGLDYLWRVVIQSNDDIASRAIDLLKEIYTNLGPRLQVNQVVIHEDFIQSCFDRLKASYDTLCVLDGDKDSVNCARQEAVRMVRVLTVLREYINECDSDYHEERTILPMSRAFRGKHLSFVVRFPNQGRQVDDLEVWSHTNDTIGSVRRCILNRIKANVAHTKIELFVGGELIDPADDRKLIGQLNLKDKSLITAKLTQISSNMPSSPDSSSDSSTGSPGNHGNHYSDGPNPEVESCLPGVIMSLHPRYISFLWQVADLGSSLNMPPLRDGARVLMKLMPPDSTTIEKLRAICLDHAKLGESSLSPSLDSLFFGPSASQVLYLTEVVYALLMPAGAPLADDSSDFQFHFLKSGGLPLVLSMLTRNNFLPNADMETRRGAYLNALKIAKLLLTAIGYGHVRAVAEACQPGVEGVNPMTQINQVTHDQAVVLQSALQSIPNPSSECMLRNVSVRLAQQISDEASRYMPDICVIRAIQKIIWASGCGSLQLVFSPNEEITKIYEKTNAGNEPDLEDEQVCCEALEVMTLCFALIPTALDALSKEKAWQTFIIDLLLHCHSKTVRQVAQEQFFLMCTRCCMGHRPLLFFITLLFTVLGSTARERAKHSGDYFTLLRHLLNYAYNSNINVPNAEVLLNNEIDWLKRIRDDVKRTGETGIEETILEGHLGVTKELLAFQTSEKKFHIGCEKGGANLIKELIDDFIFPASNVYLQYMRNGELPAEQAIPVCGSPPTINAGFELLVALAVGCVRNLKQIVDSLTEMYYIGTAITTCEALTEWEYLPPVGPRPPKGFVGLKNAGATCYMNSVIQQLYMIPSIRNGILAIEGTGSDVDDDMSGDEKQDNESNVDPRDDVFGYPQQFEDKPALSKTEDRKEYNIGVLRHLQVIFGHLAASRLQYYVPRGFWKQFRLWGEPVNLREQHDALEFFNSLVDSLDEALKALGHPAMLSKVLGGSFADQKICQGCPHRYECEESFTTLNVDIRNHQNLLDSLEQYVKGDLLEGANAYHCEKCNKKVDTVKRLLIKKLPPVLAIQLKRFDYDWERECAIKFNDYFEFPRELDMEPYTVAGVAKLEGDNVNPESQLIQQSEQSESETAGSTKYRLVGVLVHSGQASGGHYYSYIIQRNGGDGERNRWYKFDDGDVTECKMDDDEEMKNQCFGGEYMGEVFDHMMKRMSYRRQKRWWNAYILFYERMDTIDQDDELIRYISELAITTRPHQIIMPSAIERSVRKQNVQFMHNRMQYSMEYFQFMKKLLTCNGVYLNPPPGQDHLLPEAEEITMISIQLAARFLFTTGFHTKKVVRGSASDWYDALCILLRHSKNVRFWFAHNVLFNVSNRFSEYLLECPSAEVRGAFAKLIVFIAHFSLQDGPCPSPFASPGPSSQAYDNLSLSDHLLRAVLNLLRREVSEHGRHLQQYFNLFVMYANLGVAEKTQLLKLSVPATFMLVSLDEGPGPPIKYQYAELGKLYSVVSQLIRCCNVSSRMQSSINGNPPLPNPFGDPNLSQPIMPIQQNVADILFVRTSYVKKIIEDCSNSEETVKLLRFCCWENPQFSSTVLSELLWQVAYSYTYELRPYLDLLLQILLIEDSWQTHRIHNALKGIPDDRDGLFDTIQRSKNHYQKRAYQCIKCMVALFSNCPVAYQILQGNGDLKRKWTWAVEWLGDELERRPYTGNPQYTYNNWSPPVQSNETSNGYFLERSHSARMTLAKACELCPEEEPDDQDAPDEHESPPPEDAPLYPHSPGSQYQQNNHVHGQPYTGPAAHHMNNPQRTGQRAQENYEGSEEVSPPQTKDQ", "assay": "Biacore T200 surface plasmon resonance binding to immobilized USP9X", "conditions": "25° C.", "description": "The terms “inhibit” as used herein with respect to the activity of the USP9X inhibitor, refer to the ability to substantially antagonize, prohibit, prevent, restrain, slow, disrupt, alter, eliminate, stop, or reverse the progression or severity of, for example, the catalytic activity of a DUB such as USP9X, the survival or proliferation of a cancer cell, or a disease or condition associated with USP9X. […] In some embodiments, the compounds as described can inhibit USP9X by binding to an active site of USP9X. […] The binding activity is determined with a standard binding assay, such as a Biacore surface plasmon resonance instrument. […] The binding affinity KD is determined using a Biacore T200 instrument (GE Healthcare, Biacore). Ubiquitin aldehyde can be used as a reference in analyzing the inhibition results determined via Biacore. […]\nUSP9X was immobilized on a chip for surface plasmon resonance measurements via Biacore T200. Solutions of compound Compound 2A at various concentrations were flowed over the immobilized USP9X and the change in refractive index was monitored. […] The values of the maximum response for each concentration of Compound 2A were plotted and were consistent with a binding of the compound to a single site on USP9X with a dissociation equilibrium constant of 1.9 μM in reasonable agreement with value determined from the kinetic association and dissociation rates."}, "USP9X [2]": {"biological_target": "T1, USP9X", "assay": "USP9X enzyme activity assay, ubiquitin-rhodamine110 substrate", "protocol": "The inhibition property of compound Compound 1A was evaluated in assays measuring the ability of USP9X to catalyze the hydrolysis of the amide bond between the C terminal carboxylate of ubiquitin and rhodamine110 of the fluorogenic substrate ubiquitin-rhodamine 110. To the wells of a 96 well reaction plate was added 12.5 μL USP9X solution (1.3 nM) in assay buffer (100 mM NaCl, 1 mM DTT, 0.1% bovine serum albumin, 0.05% Tween 20, 50 mM Tris, pH 7.5). 12.5 μL of Compound 1A in assay buffer (4×final concentration) was added to the wells containing the USP9X solution, and the solution was gently mixed by pipetting up and down several times. The plate was sealed and incubated at room temperature for 20 minutes.\nThen 25 μL of the 1 μM substrate (ubiquitin-rhodaminel10) solution was added in assay buffer. The final substrate concentration was 0.5 μM. […] The slope for the rate of change of the fluorescence was determined and plotted vs the concentration of Compound 1A.\nUSP9X enzyme assays were set up in a 96 well plate to assess the abilities of Compound 3A and Compound 4A to inhibit the activity of USP9X, respectively. Ubiquitin-rhodamine110 was used as the substrate and ubiquitin aldehyde was included in the assay as a positive control.\nPurified recombinant USPx9 (R&D Systems) in 50 mM Tris buffer pH 7.5, 1 mM DTT, 100 mM NaCl, 0.05% Tween 20 and 0/1% BSA is used at a concentration of 0.325 nM with 0.5 μM ubiquitin-rhodamine (R&D Systems)."}, "carbonic anhydrase": {"test_system": "carbonic anhydrase", "assay": "Biacore binding to immobilized carbonic anhydrase (non-specific binding control)"}, "USP9X [3]": {"biological_target": "T1, USP9X", "assay": "Steady-state enzyme inhibition kinetics of USP9X", "type": "biochemical", "description": "The data were fit to a general model for enzyme inhibition (FIG. 1E) so the values of the parameters determined from the assays specified the mode of inhibition. For example, in the case of α=1 and β=0, it corresponded to purely non-competitive inhibition. For α=infinity and p=1, it corresponded to purely competitive inhibition. The values of all the parameters, KS, KI, kcat, α, and β could be determined from the steady state measurements. The enzyme reactions were set up as described in the Inhibiting the catalytic activity of USP9X section. The concentration of the substrate ubqiutin-rhodamine110 was varied. The initial rates of the reactions were determined at several concentrations of the inhibitor Compound 2A. In order to determine the values of the parameters KS and kcat, the reaction rates in the absence of the inhibitor Compound 2A, the initial reaction rate data were fit to the standard Michaelis-Menten equation v=Vmax [S]/(Km+[S]). The values of α and β could then be determined by fitting the initial rate data of the enzyme reaction at various concentrations of Compound 2A to a modified version of the Michaelis-Menten equation, designating both Vmax and KS apparent to distinguish the apparent values of the parameters determined from these plots to the true values for these parameters determined from the steady state kinetics in the absence of Compound 2A. The values of α and β could be determined from the variation of the slopes and intercepts of the series of double reciprocal plots of 1/v versus 1/[S] for each concentration of Compound 2A. […] The two values determined for KI were from the two different plots.\nThe two values for KI were determined by two different methods for determining this parameter from the kinetic data: 1 represented a value determined from the slope of the 1/A intercept vs 1/[I] plot; 2 represented a value determined from the y intercept of the 1/A slope vs 1/[I] plot. […] Only the values of the parameters varied for the compounds."}}, "note": "Where two headings read alike, the source gives them in different places."}
{"smiles": "CC(C)(C)C[C@@H]1NC(=O)c2cccc(c2)CNC(=O)c2ccc(cc2)OCCNC(=O)CC(C)(C)CC(=O)N[C@H](C(=O)O)Cc2ccc(cc2)NC1=O", "note": "[Compound 2A]", "values": [{"measurement": "Kd", "setting": "USP9X [1]; read-out: dissociation equilibrium constant from maximum response vs concentration, single site", "value": 1900, "unit": "nM"}, {"measurement": "Kd", "setting": "USP9X [1]; read-out: equilibrium dissociation constant KD from ratio of dissociation to association rate constant", "value": 480, "unit": "nM"}, {"measurement": "reduction of USP9X activity", "setting": "USP9X [2]; higher concentrations of compound (>10 μM)", "value": "approximately 60%"}, {"measurement": "IC50", "setting": "USP9X [2]; read-out: IC50 for the inhibition of USP9X activity, ubiquitin-rhodamine110 substrate", "value": 390, "unit": "nM"}, {"measurement": "IC50", "setting": "USP9X [2]; read-out: USP9X IC50 nM, Table 2", "value": 390, "unit": "nM"}, {"measurement": "binding to immobilized carbonic anhydrase", "setting": "carbonic anhydrase", "value": "did not bind"}, {"measurement": "KS", "setting": "USP9X [3]", "value": 0.95, "unit": "µM"}, {"measurement": "VMAX RFU/min", "setting": "USP9X [3]", "value": 310, "unit": "RFU/min"}, {"measurement": "mode of inhibition", "setting": "USP9X [3]", "value": "hyperbolic mixed inhibition"}, {"measurement": "α", "setting": "USP9X [3]", "value": 1.73}, {"measurement": "β", "setting": "USP9X [3]", "value": 0.71}, {"measurement": "Ki", "setting": "USP9X [3]; from the slope of the 1/Δ intercept vs 1/[I] plot, read-out: KI, nM (1)", "value": 120, "unit": "nM"}, {"measurement": "Ki", "setting": "USP9X [3]; from the y intercept of the 1/Δ slope vs 1/[I] plot, read-out: KI, nM (2)", "value": 290, "unit": "nM"}]}
